Data taken from US11192913B2, “C-glycoside amine derivatives and methods of making” (The United States of America, as Represented by the …, priority 2020, dated 2021).
Converted amounts (≈) assume the structure as drawn. Where two headings read alike, the source gives them in different places.

Legend:
Escherichia coli [1] = test: Antimicrobial activity; assay type: cell-based; conditions: gram negative Escherichia
Protocol: (§1) When surfactants are used in detergent formulations, antibiotic activity is an important trait. The antibiotic activity of the surfactants prepared from the saccharides glucose, maltose, and lactose, and 2-undecanone were measured against several microorganisms of interest in the food, human health, and agricultural areas. […] The CMC values for the β-C-glycoside 2-aminoundecanes were 0.1-5.5 mM.
(§2) Summary: β-C-glycoside ketone derivatives of saccharides glucose, lactose, and maltose were converted to amines via a reductive amination using 2 wt % Rh/HMS (Rh/C or Rh/Al2O3 can be used) in ammoniacal methanol under about 500 psi H2 (pressure can be about 350 psi). The amines were isolated and then these molecules were used as the amine in the reductive amination of 2-undecanone prepared from the seed oil of Cuphea. The resulting β-C-glycoside 2-aminoundecanes were characterized by MALDI-TOF mass spectrometry, 2D nmr, and CHN analyses. The detergency of the products was measured by fluorescence detection to measure the critical micelle concentration.

Envinia amylovora = test: Antimicrobial activity; assay type: cell-based; conditions: gram negative Erwinia
Protocol: as §1, §2

[2] = test system: all gram positive organisms tested; conditions: against all gram positive organisms tested
Protocol: as §1, §2

B. cereus = conditions: Staron et al. 2018; cited from earlier work
Escherichia coli [3] = conditions: Zhao et al. 2015; cited from earlier work
Bacillus subtilis = conditions: Zhao et al. 2015; cited from earlier work
Streptococcus mutans = conditions: Watanabe et al. 2000; cited from earlier work

CCCCCCCCCC(C)NC(C)C[C@@H]1O[C@H](CO)[C@@H](O)[C@H](O)[C@H]1O (some centres unmarked) [glucose derivative, Glucose C-glycoside 2-aminoundecane]
MIC (Escherichia coli [1]): 620 µM (≈ 233 µg/mL) | MIC (Envinia amylovora): 620 µM (≈ 233 µg/mL) | minimum bactericide concentration [2]: 620 µM (≈ 233 µg/mL) | minimum inhibitory concentration [2]: 310 µM (≈ 116 µg/mL)

dodecanoyl lactose
MIC (B. cereus): 5900 µM

sucrose caprate
MIC (Escherichia coli [3]): 10000 µM | MIC (Bacillus subtilis): 2500 µM

Galactose laurate
MIC (Streptococcus mutans): 140 µM
